Experimental data: patent US20250161321A1, “AMINO ACID BASED CARBAMATES AND/OR UREAS FOR THE TREATMENT OF SORTILIN DEPENDENT DISEASES” (Vesper Bio ApS, priority 2022, published 2025)

Target: h-Sortilin (Homo sapiens (Human), UniProt Q99523)
Assay: Neurotensin scintillation proximity assay (SORTILIN Binding Assay [3H]NT SPA)
Details: displacement of 5 nM [3H]-neurotensin from 150 nM 6his-Sortilin; average of at least 2 determinations
Method: The exemplified compounds of the invention were tested in a Neurotensin (NTS) scintillation proximity assay (SPA). NTS, which is a 13 amino acid neuropeptide, is a sortilin ligand. The IC50 is a measure of the amount of the compound required to inhibit the binding of NTS to sortilin by 50%. The skilled person will recognise that the lower the IC50 value, the less of the compound needed to achieve the desired effect, and as a result, the chances of undesirable off-target effects are reduced.
Compound affinity was determined by measuring the displacement of [^3H]-neurotensin binding to h-Sortilin in SPA format. Total volume of 40 μl in 50 mM HEPES pH 7.4 assay buffer containing 100 mM NaCl, 2.0 mM CaCl2, 0.1% BSA and 0.1% Tween-20. Compound pre-incubation for 30 minutes at room temperature with 150 nM of 6his-Sortilin before 5 nM [3H]-Neurotensin and Ni chelate imaging beads (Perkin Elmer) were added, after 6 hours the plate was read on a ViewLux with 360 s exposure time. Dose-response evaluation of compounds was performed with 8 concentrations of drugs (covering 3 decades). IC50 values were calculated by nonlinear regression using the sigmoid concentration-response (variable slope) using CDD Vault software. All values reported are average of at least 2 determinations.

h-Sortilin, sequence (Q99523 78-831): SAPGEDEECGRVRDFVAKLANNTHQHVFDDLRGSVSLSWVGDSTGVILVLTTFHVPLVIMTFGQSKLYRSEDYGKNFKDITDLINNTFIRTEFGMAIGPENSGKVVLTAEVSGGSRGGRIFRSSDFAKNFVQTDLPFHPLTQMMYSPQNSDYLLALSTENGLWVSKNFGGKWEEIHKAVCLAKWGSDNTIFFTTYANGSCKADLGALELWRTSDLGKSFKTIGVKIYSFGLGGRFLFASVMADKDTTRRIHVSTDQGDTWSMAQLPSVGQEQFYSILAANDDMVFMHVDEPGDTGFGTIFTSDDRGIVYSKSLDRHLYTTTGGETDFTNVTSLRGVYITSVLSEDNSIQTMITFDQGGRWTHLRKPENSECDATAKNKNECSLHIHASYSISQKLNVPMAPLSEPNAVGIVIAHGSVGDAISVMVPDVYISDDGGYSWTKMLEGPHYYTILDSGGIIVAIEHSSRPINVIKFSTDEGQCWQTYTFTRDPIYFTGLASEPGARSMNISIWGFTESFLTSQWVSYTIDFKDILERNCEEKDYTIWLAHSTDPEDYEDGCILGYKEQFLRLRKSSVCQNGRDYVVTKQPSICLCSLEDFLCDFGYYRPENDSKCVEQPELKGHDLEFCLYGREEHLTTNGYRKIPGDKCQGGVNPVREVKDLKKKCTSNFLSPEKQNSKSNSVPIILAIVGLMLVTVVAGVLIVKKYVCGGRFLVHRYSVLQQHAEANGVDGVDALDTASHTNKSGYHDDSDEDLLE

SMILES | IC50 [nM]
CN(Cc1ccccc1)C(=O)N[C@@H](CCC(C)(C)C)C(=O)O [Example 2, (2S)-2-{[benzyl(methyl)carbamoyl]amino}-5,5-dimethylhexanoic acid] | 430
CC(C)(C)CC[C@H](NC(=O)NCc1ccccc1)C(=O)O [Example 1, (2S)-2-[(benzylcarbamoyl)amino]-5,5-dimethylhexanoic acid] | 380
CC(C)(C)CC[C@H](NC(=O)OCc1ccccc1)C(=O)O [Example 3, (2S)-2-{[(benzyloxy)carbonyl]amino}-5,5-dimethylhexanoic acid] | 560
CC(C)(C)CC[C@H](NC(=O)N1CCCOCC1)C(=O)O [Example 5, (2S)-5,5-dimethyl-2-[(1,4-oxazepane-4-carbonyl)amino]hexanoic acid] | 370
CC(C)(C)CC[C@H](NC(=O)N1CCOCC1)C(=O)O [Example 4, (2S)-5,5-dimethyl-2-[(morpholine-4-carbonyl)amino]hexanoic acid] | 260
